In test [1] the test system is lung fibroblasts isolated from bleomycin-treated mice. Description: MTT cell viability of lung fibroblasts from saline- or bleomycin-treated mice. The following applies: fibroblasts from bleomycin-treated mice compared to those from saline-treated mice. The class given is cell-based. How it is done:
FIGS. 7A-7B: (FIG. 7A) Western blots analysis of phospho-MARCKS, phospho-AKT and α-SMA expression in lung fibroblast cells isolated from saline- or bleomycin-treated mice after 48 hours of treatment with control or MPS peptides (100 μM). (FIG. 7B) Effect of MPS peptide on cell viability of lung fibroblasts isolated from saline- (mFb-Saline) or bleomycin-treated (mFb-Bleomycin) mice (n=4; *, p<0.05).
MPS peptide potentially serves as an antifibrotic agent in bleomycin-induced pulmonary fibrosis. Bleomycin remains the standard agent for induction of experimental pulmonary fibrosis in animals^23. Thus, 8-week-old female C57BL/6J mice received saline or bleomycin intratracheally (33 μg in […] of saline) as previously described^23. Lung specimens from bleomycin- or saline-treated mice were collected and subjected to immunofluorescence staining. […] Next, lung fibroblast cells isolated from saline- or bleomycin-treated mice (two mice fibroblast cell lines were gifts from Dr. Sem H. Phan, University of Michigan School of Medicine, MI) were incubated with either 100 μM control or MPS peptide for 48 hours. […] The feasibility of the MPS peptide as an antifibrotic agent in a bleomycin-induced pulmonary fibrosis was tested. […] Saline- and bleomycin-exposed mice then were treated with either PBS or MPS peptide (28 mg/kg) intraperitoneally every other day. […]

A further test relates to PIP3. Nature of the test: PI(3,4,5)P3 quantitation (PIP3 Mass ELISA) in IPF fibroblasts. It counts as cell-based, human. As to conditions: MPS-treated IPF fibroblasts vs PBS. The source says: FIGS. 10A-10C: (FIG. 10A) The PIP2-binding motif (SEQ ID NO: 12) on the ? hosphorylation ? ite ? omain (PSD) of MARCKS. FIG. 10A discloses the MH domain as SEQ ID NO: 86). (FIG. 10B) Biolayer interferometry analysis of the binding of the MPS peptide to biotin-labeled PIP2. (FIG. 10C) PIP3 levels in IPF fibroblast cells with PBS or MPS treatment. * p<0.05 versus PBS (n=3).
Cells were harvested and precipitated by trichloroacetic acid. PIP3 lipids were extracted twice from the trichloroacetic acid precipitated fraction by methanol: chloroform (2:1). After acidification, organic-phase lipids were used for PIP3 quantitation, based on the protocol for the PIP3 Mass ELISA kit (Echelon Biosciences, Salt Lake, Utah). Briefly, the lipid extract from cultured cells was mixed with the PIP3-specific detector protein, which was then incubated in a PIP3-coated microplate for competitive binding. After several washes, the microplate was then incubated with a HRP-linked secondary detector and tetramethylbenzidine substrate for color development. To stop further color development, 2M H2SO4 solution was then added. Microplates were read at an absorbance wavelength of 450 nm. A series of different dilutions of PIP3 standards were used for establishing a standard curve for each reaction. Cellular PIP3 amounts could be estimated by comparing the absorbance in the wells with the values in the standard curve. […]

The subject of test [2] is primary IPF fibroblast cells. Nature of the test: Cell motility and colony-forming ability of primary IPF fibroblasts. It counts as cell-based, human. As to the method: FIGS. 4A-4B: MARCKS inhibition using MPS peptide reduced primary IPF fibroblast cell motility (FIG. 4A) and colony-forming ability (FIG. 4B) n=4; *, p<0.05.
An in vitro cell migration assay was performed as previously described^13, 14 using Transwell chambers (8-μm pore size; Costar, Cambridge, Mass.). Briefly, 2×10^4 cells were seeded on top of the polycarbonate filters, and 0.5 ml of growth medium with scrambled or MPS peptide (100 μM) was added to both the upper and lower wells. After incubation for 20 hours, filters were swabbed with a cotton swab, fixed with methanol, and then stained with Giemsa solution (Sigma). The cells attached to the lower surface of the filter were counted under a light microscope (10× magnification).
Cells were seeded onto 96-well plates at a density of 5-10×10^3 cells per well and cultured for the indicated treatment. Cell proliferation was evaluated using a MTS assay kit (Promega, Madison, Wis.). Twenty microliters of the combined MTS/PMS solution was added into each well, incubated for 3 hours at 37° C., and the absorbance was measured at 490 nm by using an ELISA reader. […] After 72 hours, both attached and detached cells were collected and then stained with 0.2% trypan blue (0.1% final concentration), and the number of trypan blue-positive and -negative cells was counted using a haemocytometer under low-power microscopy. […]

Where no end group is shown, it is not given here.

From US20220267390A1, “MPS MODIFIED PEPTIDES AND USE THEREOF” (The Regents of the University of California, priority 2019, published 2022) come the findings set out here.

On to KKKKKRFSFKKSFKLSGFSFKKNKK [MPS peptide], for which the Cell viability result in test [1] is given as “very effective in decreasing cell viability”. For the same sequence, the “PIP3 pools in whole cell lysates” value in the test on PIP3 is recorded as “decrease”. For the same sequence, in test [2], the cell motility entry is recorded as “reduces” and the “proliferation (colony-forming ability)” value is “reduces”.
